The values that follow come from patent US8952017B2 (Emisphere Technologies, Inc., priority 2004, dated 2015).

Data set [1] is described as follows: Solid oral delivery of acyclovir in rats (plasma acyclovir by LC-MS-MS). It counts as in vivo, Male Sprague Dawley rats. The conditions noted are these: oral tablet, acyclovir 25 mg/kg, no delivery agent. The text has this:
An oral dosing tube was used.
Results from the animals in each group were averaged for each time point.

The conditions of data set [2]: orally administered; cited from earlier work.

As for `Nc1nc2c(ncn2COCCO)c(=O)[nH]1` [Acyclovir, 9-(2-hydroxyethoxymethyl)guanine], the “Mean plasma peak of Acyclovir (ng/ml) ± SD” value in data set [1] was found to be 95.11 ± 73.75 ng/mL. Also, in data set [2], the bioavailability is reported as 15-30%.
